One assay deals with T1, HCV NS5B (Hepatitis C virus genotype 1b, UniProt Q9WMX2).
T1 construct: The protein was expressed with an 18 amino acid C-terminal truncation to enhance the solubility; made in house; host or cells: E. coli BL21(DE3)
Briefly: HCV NS5B RdRp enzyme assay (preincubation protocol). Format: biochemical. The conditions noted are these: HCV NS5B RdRp genotype 1b. The method, then: HCV NS5B RdRp cloning, expression, and purification. The cDNA encoding the NS5B protein of HCV, genotype 1b, was cloned into the pET21a expression vector. The protein was expressed with an 18 amino acid C-terminal truncation to enhance the solubility. The E. coli competent cell line BL21(DE3) was used for expression of the protein. Cultures were grown at 37° C. for ˜4 hours until the cultures reached an optical density of 2.0 at 600 nm. The cultures were cooled to 20° C. and induced with 1 mM IPTG. Fresh ampicillin was added to a final concentration of 50 μg/ml and the cells were grown overnight at 20° C.
Cell pellets (3 L) were lysed for purification to yield 15-24 mgs of purified NS5B. The lysis buffer consisted of 20 mM Tris-HCl, pH 7.4, 500 mM NaCl, 0.5% triton X-100, 1 mM DTT, 1 mM EDTA, 20% glycerol, 0.5 mg/ml lysozyme, 10 mM MgCl2, 15 ug/ml deoxyribonuclease I, and Complete TM protease inhibitor tablets (Roche). After addition of the lysis buffer, frozen cell pellets were resuspended using a tissue homogenizer. To reduce the viscosity of the sample, aliquots of the lysate were sonicated on ice using a microtip attached to a Branson sonicator. The sonicated lysate was centrifuged at 100,000×g for 1 hr at 4° C. and filtered through a 0.2 μm filter unit (Corning).
The protein was purified using three sequential chromatography steps: Heparin sepharose CL-6B, polyU sepharose 4B, and Hitrap SP sepharose (Pharmacia). The chromatography buffers were identical to the lysis buffer but contained no lysozyme, deoxyribonuclease I, MgCl2 or protease inhibitor and the NaCl concentration of the buffer was adjusted according to the requirements for charging the protein onto the column. Each column was eluted with a NaCl gradient which varied in length from 5-50 column volumes depending on the column type. After the final chromatography step, the resulting purity of the enzyme is >90% based on SDS-PAGE analysis. The enzyme was aliquoted and stored at −80° C.
Standard HCV NS5B RdRp enzyme assay. HCV RdRp genotype 1b assays were run in a final volume of 60 μl in 96 well plates (Costar 3912 H. The assay buffer is composed of 20 mM Hepes, pH 7.5, 2.5 mM KCl, 2.5 mM MgCl2, 1 mM DTT, 1.6 U RNAse inhibitor (Promega N2515), 0.1 mg/ml BSA (Promega R3961), and 2% glycerol. All compounds were serially diluted (3-fold) in DMSO and diluted further in water such that the final concentration of DMSO in the assay was 2%. HCV RdRp genotype 1b enzyme was used at a final concentration of 28 nM. A polyA template was used at 6 nM, and a biotinylated oligo-dT12 primer was used at 180 nM final concentration. Template was obtained commercially (Amersham 27-4110). Biotinylated primer was prepared by Sigma Genosys. 3H-UTP was used at 0.6 μCi (0.29 μM total UTP). Reactions were initiated by the addition of enzyme, incubated at 30° C. for 60 min, and stopped by adding 25 μl of 50 mM EDTA containing SPA beads (4 μg/μl, Amersham RPNQ 0007 H. Plates were read on a Packard Top Count NXT after >1 hr incubation at room temperature.
Modified HCV NS5B RdRp enzyme assay. A modified enzyme assay was performed essentially as described for the standard enzyme assay except for the following: The biotinylated oligo dT12 primer was precaptured on streptavidin-coated SPA beads by mixing primer and beads in assay buffer and incubating at room temperature for one hour. Unbound primer was removed after centrifugation. The primer-bound beads were resuspended in 20 mM Hepes buffer, pH 7.5 and used in the assay at final concentrations of 20 nM primer and 0.67 μg/μl beads. Order of addition in the assay: enzyme (14 nM) was added to diluted compound followed by the addition of a mixture of template (0.2 nM), 3H-UTP (0.6 μCi, 0.29 μM), and primer-bound beads, to initiate the reaction; concentrations given are final. Reactions were allowed to proceed for 4 hours at 30° C.
IC50 values for compounds were determined using seven different [I]. […]

For the next assay, the system named is HCV replicon cells. Briefly: HCV replicon FRET assay. The conditions noted are these: Hepatitis C virus. The class given is cell-based. The text has this:
FRET Assay Preparation. To perform the HCV FRET screening assay, 96-well cell culture plates were used. The FRET peptide (Anaspec, Inc.) (Taliani et al., Anal Biochem. 1996, 240, 60-67) contains a fluorescence donor, EDANS, near one end of the peptide and an acceptor, DABCYL, near the other end. The fluorescence of the peptide is quenched by […] resonance energy transfer (RET) between the donor and the acceptor, but as the NS3 protease cleaves the peptide the products are released from RET quenching and the fluorescence of the donor becomes apparent. The assay reagent was made as follows: 5× cell Luciferase cell culture lysis reagent from Promega (#E153A) diluted to 1× with dH2O, NaCl added to 150 mM final, the FRET peptide diluted to 20 μM final from a 2 mM stock.
To prepare plates, HCV replicon cells, with or without a Renilla luciferase reporter gene, were trypsinized and placed into each well of a 96-well plate with titrated test compounds added in columns 3 through 12; columns 1 and 2 contained a control compound (HCV protease inhibitor), and the bottom row contained cells without compound. The plates were then placed in a CO2 incubator at 37° C.
Assays. Subsequent to addition of the test compounds described above (FRET Assay Preparation), at various times the plate was removed and Alamar blue solution (Trek Diagnostics, #00-100) was added per well as a measure of cellular toxicity. After reading in a Cytoflour 4000 instrument (PE Biosystems), plates were rinsed with PBS and then used for FRET assay by the addition of 30 ul of the FRET peptide assay reagent described above (FRET Assay Preparation) per well. The plate was then placed into the Cytoflour 4000 instrument which had been set to 340 excite/490 emission, automatic mode for 20 cycles and the plate read in a kinetic mode. Typically, the signal to noise using an endpoint analysis after the reads was at least three-fold. Alternatively, after Alamar blue reading, plates were rinsed with PBS, 50 ul of DMEM (high glucose) without phenol red was added and plates were then used for luciferase assay using the Promega Dual-Glo Luciferase Assay System.
Compound analysis was determined by quantification of the relative HCV replicon inhibition and the relative cytotoxicity values. To calculate cytoxicity values, the average Alamar Blue fluorescence signals from the control wells were set as 100% non-toxic. The individual signals in each of the compound test wells were then divided by the average control signal and multiplied by 100% to determine […]. To calculate the HCV replicon inhibition values, an average background value was obtained from the two wells containing the highest amount of HCV protease inhibitor at the end of the assay period. These numbers were similar to those obtained from naïve Huh-7 cells.
The background numbers were then subtracted from the average signal obtained from the control wells and this number was used as 100% activity. The individual signals in each of the compound test wells were then divided by the averaged control values after background subtraction and multiplied by 100% to determine percent activity. EC50 values for a protease inhibitor titration were calculated as the concentration which caused a 50% reduction in FRET or luciferase activity. The two numbers generated for the compound plate, percent cytoxicity and percent activity were used to determine compounds of interest for further analysis.
Background: A replicon is a self-replicating genome or part of one, used to study replication in cells.

The structures appear in SMILES notation. Bounds are passed on as bounds.

A word on the IC50: it is the concentration that inhibits the measured activity by half. A low value points to inhibition by little substance. In general, EC50 refers to the concentration giving half of the maximal effect. A high value points to a less potent agent.

T1 sequence (Q9WMX2 2420-2992): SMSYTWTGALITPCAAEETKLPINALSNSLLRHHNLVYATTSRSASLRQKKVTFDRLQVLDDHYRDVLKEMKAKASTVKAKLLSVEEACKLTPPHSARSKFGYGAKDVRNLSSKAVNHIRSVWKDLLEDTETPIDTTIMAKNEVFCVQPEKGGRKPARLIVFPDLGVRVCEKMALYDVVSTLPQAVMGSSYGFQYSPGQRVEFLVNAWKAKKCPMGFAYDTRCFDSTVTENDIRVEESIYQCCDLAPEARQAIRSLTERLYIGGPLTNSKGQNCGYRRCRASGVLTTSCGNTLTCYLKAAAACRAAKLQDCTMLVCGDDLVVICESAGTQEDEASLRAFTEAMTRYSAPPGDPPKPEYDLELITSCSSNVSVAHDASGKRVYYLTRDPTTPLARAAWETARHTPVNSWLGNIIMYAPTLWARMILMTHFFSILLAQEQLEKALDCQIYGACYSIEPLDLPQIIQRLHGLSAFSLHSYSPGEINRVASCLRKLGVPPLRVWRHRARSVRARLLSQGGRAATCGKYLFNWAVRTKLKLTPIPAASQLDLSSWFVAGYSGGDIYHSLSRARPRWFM

As to `O=C(O)c1ccc2c(C3CCCCC3)c3n(c2c1)CC(c1nn(CC2CCOCC2)c(=O)o1)=Cc1ccccc1-3` [Example 21, 13-cyclohexyl-6-[4,5-dihydro-5-oxo-4-[(tetrahydro-2H-pyran-4-yl)methyl]-1,3,4-oxadiazol-2-yl]-7H-indolo[2,1-a][2]benzazepine-10-carboxylic acid], the IC50 against HCV NS5B was 1 to 500 nM. In addition, the EC50 with HCV replicon cells is more than 500 nM.

Regarding `O=C(O)c1ccc2c(C3CCCCC3)c3n(c2c1)CC(c1n[nH]c(CC2CCOCC2)n1)=Cc1ccccc1-3` [Example 22, 13-cyclohexyl-6-[3-[(tetrahydro-2H-pyran-4-yl)methyl]-1H-1,2,4-triazol-5-yl]-7H-indolo[2,1-a][2]benzazepine-10-carboxylic acid], on HCV NS5B, the IC50 lay in the range of 1 to 500 nM. Further, the EC50 in the assay with HCV replicon cells was more than 500 nM.

For the compound `COC(=O)c1ccc2c(C3CCCCC3)c3n(c2c1)CC(c1nc(C)no1)=Cc1ccccc1-3` [Example 23, 13-cyclohexyl-6-(3-methyl-1,2,4-oxadiazol-5-yl)-7H-indolo[2,1-a][2]benzazepine-10-carboxylic acid, methyl ester], the IC50 against HCV NS5B was more than 500 nM. Also, in the assay on HCV replicon cells, the EC50 was more than 500 nM.

For `Cc1noc(C2=Cc3ccccc3-c3c(C4CCCCC4)c4ccc(C(=O)O)cc4n3C2)n1` [Example 24, 13-cyclohexyl-6-(3-methyl-1,2,4-oxadiazol-5-yl)-7H-indolo[2,1-a][2]benzazepine-10-carboxylic acid], at HCV NS5B, the IC50 is 1 to 500 nM. The concentration giving a half-maximal response (EC50) in the assay with HCV replicon cells was more than 500 nM.

At HCV NS5B, `Cc1noc(C2=Cc3ccccc3-c3c(C4CCCCC4)c4ccc(C(=O)NS(=O)(=O)N(C)C)cc4n3C2)n1` [Example 25, 13-cyclohexyl-N-[(dimethylamino)sulfonyl]-6-(3-methyl-1,2,4-oxadiazol-5-yl)-7H-indolo[2,1-a][2]benzazepine-10-carboxamide] yielded an IC50 of 1 to 500 nM. The half-maximal effective concentration (EC50) in the assay on HCV replicon cells is 1 to 500 nM.

Compound `COC(=O)c1ccc2c(C3CCCCC3)c3n(c2c1)CC(c1nc(CS(C)(=O)=O)no1)=Cc1ccccc1-3` [Example 26, 13-cyclohexyl-6-[3-[(methylsulfonyl)methyl]-1,2,4-oxadiazol-5-yl-]7H-indolo[2,1-a][2]benzazepine-10-carboxylic acid, methyl ester] returned an IC50 on HCV NS5B of more than 500 nM. Moreover, the EC50 with HCV replicon cells was more than 500 nM.

Take `CS(=O)(=O)Cc1noc(C2=Cc3ccccc3-c3c(C4CCCCC4)c4ccc(C(=O)O)cc4n3C2)n1` [Example 27, 13-cyclohexyl-6-[3-[(methylsulfonyl)methyl]-1,2,4-oxadiazol-5-yl]-7H-indolo[2,1-a][2]benzazepine-10-carboxylic acid]: the IC50 at HCV NS5B lay within 1 to 500 nM. In the assay on HCV replicon cells, the EC50 was more than 500 nM.

As for `CN(C)S(=O)(=O)NC(=O)c1ccc2c(C3CCCCC3)c3n(c2c1)CC(c1nc(CS(C)(=O)=O)no1)=Cc1ccccc1-3` [Example 28, 13-cyclohexyl-N-[(dimethylamino)sulfonyl]-6-[3-[(methylsulfonyl)methyl]-1,2,4-oxadiazol-5-yl]-7H-indolo[2,1-a][2]benzazepine-10-carboxamide], the IC50 against HCV NS5B fell in the range of 1 to 500 nM. The compound further came in with an EC50 in the assay with HCV replicon cells of more than 500 nM.

For `Nc1nnc(C2=Cc3ccccc3-c3c(C4CCCCC4)c4ccc(C(=O)O)cc4n3C2)o1` [Example 30, 6-(5-amino-1,3,4-oxadiazol-2-yl)-13-cyclohexyl-7H-indolo[2,1-a][2]benzazepine-10-carboxylic acid], the IC50 against HCV NS5B was more than 500 nM. Moreover, in the assay on HCV replicon cells, the EC50 is more than 500 nM.

The compound `O=C(CN1CCOCC1)Nc1nnc(C2=Cc3ccccc3-c3c(C4CCCCC4)c4ccc(C(=O)O)cc4n3C2)o1` [Example 33, 13-cyclohexyl-6-[5-[(4-morpholinylacetyl)amino]-1,3,4-oxadiazol-2-yl]-7H-indolo[2,1-a][2]benzazepine-10-carboxylic acid] came in with a 50% inhibitory concentration (IC50) at HCV NS5B of 1 to 500 nM. For the same compound, the EC50 with HCV replicon cells was more than 500 nM.

In the case of `COC(=O)c1ccc2c(C3CCCCC3)c3n(c2c1)CC(c1ncc(CCC(=O)N2CCOCC2)o1)=Cc1ccccc1-3` [Example 35], the IC50 against HCV NS5B is more than 500 nM. In the assay on HCV replicon cells, the half-maximal effective concentration (EC50) is more than 500 nM.

For `O=C(O)c1ccc2c(C3CCCCC3)c3n(c2c1)CC(c1ncc(CCC(=O)N2CCOCC2)o1)=Cc1ccccc1-3` [Example 36, 13-cyclohexyl-6-[5-[3-(4-morpholinyl)-3-oxopropyl]-2-oxazolyl]-7H-indolo[2,1-a][2]benzazepine-10-carboxylic acid], on HCV NS5B, the IC50 was in the range of 1 to 500 nM. This compound also yielded an EC50 with HCV replicon cells of more than 500 nM.

As to `CN(C)S(=O)(=O)NC(=O)c1ccc2c(C3CCCCC3)c3n(c2c1)CC(c1ncc(CCC(=O)N2CCOCC2)o1)=Cc1ccccc1-3` [Example 37, 13-cyclohexyl-N-[(dimethylamino)sulfonyl]-6-[5-[3-(4-morpholinyl)-3-oxopropyl]-2-oxazolyl-]7H-indolo[2,1-a][2]benzazepine-10-carboxamide], the IC50 against HCV NS5B lay in the range of 1 to 500 nM. This compound also gave an EC50 in the assay on HCV replicon cells of 1 to 500 nM.

Compound `CN(C)S(=O)(=O)NC(=O)c1ccc2c(C3CCCCC3)c3n(c2c1)CC(c1ncc(CCC(=O)N2CCOCC2)o1)Cc1ccccc1-3` (stereo not shown) [Example 38, 13-cyclohexyl-N-[(dimethylamino)sulfonyl]-6,7-dihydro-6-[5-[3-(4-morpholinyl)-3-oxopropyl]-2-oxazolyl]-5H-indolo[2,1-a][2]benzazepine-10-carboxamide] displayed an IC50 against HCV NS5B of 1 to 500 nM. In the assay on HCV replicon cells, this compound had an EC50 of 1 to 500 nM.

Source of the values: patent publication US7456165B2, “HCV NS5B inhibitors” (Bristol-Myers Squibb Company, priority 2006, dated 2008).
